According to patent US7226924B2, “Substituted 3,4-dihydro-pyrimido[1,2a]pyrimidines and 3,4-dihydro-pyrazino[1,2a]pyrimidines, and methods for their preparation and use” (priority 2000, dated 2007):

What was measured:
NMDA/MK801-binding site = NMDA/MK801-binding site inhibition; design: dose or concentration left out as unconfirmed
Excerpt: (§1) Compounds according to the invention were investigated with respect to their pharmacological properties using methods described by J. P. Devlin in “High throughput screening—the discovery of bioactive substances,” Marcel Dekker, New York, 1997, pages 275 to 453.

μ-opiate receptor = μ-opiate receptor (Homo sapiens, UniProt P35372); test: μ-opiate receptor binding; details: read-out: Ki Value of the μ-opiate Receptor Bond
Excerpt: as §1

Chain of μ-opiate receptor (P35372 whole entry, species assumed): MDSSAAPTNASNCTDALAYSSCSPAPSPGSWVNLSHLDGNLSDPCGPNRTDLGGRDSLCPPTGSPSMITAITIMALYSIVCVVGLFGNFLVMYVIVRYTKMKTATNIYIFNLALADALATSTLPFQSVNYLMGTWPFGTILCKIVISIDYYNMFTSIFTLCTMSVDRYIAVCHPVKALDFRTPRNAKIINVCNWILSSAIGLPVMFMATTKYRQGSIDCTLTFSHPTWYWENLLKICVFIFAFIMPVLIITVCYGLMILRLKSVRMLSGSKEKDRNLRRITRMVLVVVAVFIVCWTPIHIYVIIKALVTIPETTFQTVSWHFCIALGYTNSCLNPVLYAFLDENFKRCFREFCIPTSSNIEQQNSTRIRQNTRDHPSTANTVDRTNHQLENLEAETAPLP

## N#CC1=NC(c2ccccc2)=CN2C1=NC(c1ccccn1)CC2Sc1ccccc1 (centres unmarked) [Example 52, 7-phenyl-4-phenylsulphanyl-2-pyridin-2-yl-3,4--dihydro-2H-pyrazino[1,2a]pyrimidine-9--carbonitrile]
NMDA/MK801-binding site
  % inhibition of NMDA/MK801-binding site: 47%
μ-opiate receptor
  Ki: 1400 nM

## BrC1=CN2C(=NC(c3ccccn3)CC2Sc2ccccc2)N=C1 (centres unmarked) [Example 53, 7-bromo-4-phenylsulphanyl-2-pyridin-2-yl-3,4--dihydro-2H-pyrimido[1,2a]pyrimidine]
NMDA/MK801-binding site
  % inhibition of NMDA/MK801-binding site: 44%
μ-opiate receptor
  Ki: 2500 nM

## OC1=CC(O)=NC2=NC(c3ccccn3)C3C4C=CC(C4)C3N12 (centres unmarked) [Example 61, 5,8-methano-9-pyridin-2-yl-5,8,84,9-tetrahydro--4bH-1,4a,10-triaza-phenanthrene-2,4-diol]
NMDA/MK801-binding site
  % inhibition of NMDA/MK801-binding site: 40%

## NC(=O)C1=NC(Cl)=C(N)N2C1=NC(c1ccccn1)CC2Sc1ccccc1 (centres unmarked) [Example 51, 6-Amino-7-chlor-4-phenylsulphanyl-2-pyridin-2--yl-3,4-dihydro-2H-pyrazino[1,2a]pyrimidin-9--carboxylic acid amide]
NMDA/MK801-binding site
  % inhibition of NMDA/MK801-binding site: 40%
μ-opiate receptor
  Ki: 1400 nM

## BrC1=CN2C(=NC(c3ccccn3)C3CCC=CC32)N=C1 (centres unmarked) [Example 62, 3-bromo-9-pyridin-2-yl-7,8,84,9-tetrahydro--4bH-1,44,10-triaza-phenanthrene]
NMDA/MK801-binding site
  % inhibition of NMDA/MK801-binding site: 40%
